What was measured:
[1] = biological target: human serum albumin (HSA) (Homo sapiens, UniProt P02768); assay: SPR
[2] = tested on: α1-acid glycoprotein (AGP); assay: SPR
hCB2R [3] = biological target: T1, hCB2R (Homo sapiens, UniProt P34972); assay: [35S]-GTPγS binding assay, CB2R-containing membranes
human CB1 receptor = human CB1 receptor (Homo sapiens, UniProt P21554); format: biochemical
hCB2R [4] = biological target: T1, hCB2R; assay: cAMP determination assay, forskolin-stimulated HEK293-CB2R cells; settings: for effect on forskolin-stimulated cAMP accumulation, preliminary screening: 200 nM and 1 μM; for effect on forskolin-stimulated cAMP accumulation, preliminary screening / CB2 functional profile in cAMP assay: HEK293-CB2R cells; for CB2R antagonism of CP55,940 effect in cAMP assay: CP55,940 100 nM and 1 μM, compound at 200 nM (31 also at 1 μM)
[5] = biological target: human CB2 (hCB2) cannabinoid receptor (Homo sapiens, UniProt P34972); assay: [3H]-CP55,940 radioligand competition binding, hCB2 membranes
[6] = biological target: human CB1 (hCB1) cannabinoid receptor (Homo sapiens, UniProt P21554); assay: biochemical; format: binding
human CB1 (hCB1) cannabinoid receptor, sequence (P21554 whole entry): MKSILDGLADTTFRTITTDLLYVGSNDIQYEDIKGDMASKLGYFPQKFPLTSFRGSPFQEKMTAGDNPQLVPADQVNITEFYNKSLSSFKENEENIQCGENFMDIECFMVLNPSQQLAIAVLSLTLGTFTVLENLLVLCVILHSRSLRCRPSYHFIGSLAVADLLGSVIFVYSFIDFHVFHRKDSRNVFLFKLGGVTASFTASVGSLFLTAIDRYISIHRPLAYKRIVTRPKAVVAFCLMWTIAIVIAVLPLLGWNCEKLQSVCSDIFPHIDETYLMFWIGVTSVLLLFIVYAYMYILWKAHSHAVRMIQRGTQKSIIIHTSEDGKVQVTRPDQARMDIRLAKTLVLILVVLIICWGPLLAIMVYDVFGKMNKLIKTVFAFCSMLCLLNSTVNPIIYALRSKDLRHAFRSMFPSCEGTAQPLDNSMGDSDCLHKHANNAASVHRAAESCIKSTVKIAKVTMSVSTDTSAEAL

T1 sequence (P34972 whole entry): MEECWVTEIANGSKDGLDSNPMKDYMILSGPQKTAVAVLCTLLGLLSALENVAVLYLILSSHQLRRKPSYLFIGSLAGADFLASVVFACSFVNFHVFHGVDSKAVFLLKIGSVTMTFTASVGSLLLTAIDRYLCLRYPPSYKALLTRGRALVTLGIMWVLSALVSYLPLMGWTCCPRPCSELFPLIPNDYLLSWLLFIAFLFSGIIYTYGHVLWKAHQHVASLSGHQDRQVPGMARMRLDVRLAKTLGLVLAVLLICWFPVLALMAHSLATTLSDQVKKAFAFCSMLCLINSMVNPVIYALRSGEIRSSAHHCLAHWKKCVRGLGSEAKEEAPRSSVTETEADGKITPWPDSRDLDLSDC
human serum albumin (HSA), sequence (P02768 25-609): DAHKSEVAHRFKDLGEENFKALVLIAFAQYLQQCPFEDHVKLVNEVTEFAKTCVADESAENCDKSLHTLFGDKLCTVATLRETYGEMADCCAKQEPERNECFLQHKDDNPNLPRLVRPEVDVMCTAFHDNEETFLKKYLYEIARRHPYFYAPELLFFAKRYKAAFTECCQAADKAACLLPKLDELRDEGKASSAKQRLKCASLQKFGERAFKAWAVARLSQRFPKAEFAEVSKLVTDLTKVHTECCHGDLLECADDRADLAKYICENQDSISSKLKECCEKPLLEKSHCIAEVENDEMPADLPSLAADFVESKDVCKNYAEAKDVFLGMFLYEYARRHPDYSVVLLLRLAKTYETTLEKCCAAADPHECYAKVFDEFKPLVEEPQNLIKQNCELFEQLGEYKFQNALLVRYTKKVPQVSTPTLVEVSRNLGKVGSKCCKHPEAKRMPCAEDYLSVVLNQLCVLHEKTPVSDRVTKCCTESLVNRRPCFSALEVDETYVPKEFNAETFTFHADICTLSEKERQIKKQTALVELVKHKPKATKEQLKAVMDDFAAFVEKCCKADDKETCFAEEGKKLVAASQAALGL
human CB1 receptor, sequence (P21554 whole entry): as the sequence (P21554 whole entry) above
human CB2 (hCB2) cannabinoid receptor, sequence (P34972 whole entry): as the sequence (P34972 whole entry) above

Structure (SMILES): CCCCCCC(C)(C)c1cc(O)c2c(c1)OC(C)(C)c1cnoc1-2 [Compound 42, 7-(1,1-Dimethylheptyl)-4,4-dimethyl-4H-chromeno[3,4-d]-isoxazol-9-ol]
- HSA binding level [1]: very high
- AGP binding level [2]: very high
- IC50 (hCB2R [3]): 50.2 ± 24.9 nM
- fold more potent than 10b and 22 in [35S]-GTPγS binding (CB1R) (human CB1 receptor): at least 10 fold

Structure (SMILES): CCCCCCC(C)(C)c1cc(OCCCBr)c2c(c1)OC(C)(C)c1cn(C)nc1-2 [Compound 37, 9-(3-Bromopropoxy)-7-(1,1-dimethylheptyl)-2,4-dihydro-2,4,4-trimethylchromeno[4,3-c]py-razole]
- HSA binding level [1]: very high
- AGP binding level [2]: very high
- effect on forskolin-stimulated cAMP accumulation, preliminary screening (hCB2R [4]): low to high inhibition
- CB2 functional profile in cAMP assay (hCB2R [4]): partial or weak agonists

Structure (SMILES): CCCCCCC(C)(C)c1cc(OC)c2c(c1)OC(C)(C)c1cn(CC)nc1-2 [Compound 18, 7-(1,1-Dimethylheptyl)-2-ethyl-2,4-dihydro-9-methoxy-4,4-dimethylchromeno[4,3-c]pyrazole]
- HSA binding level [1]: very high
- AGP binding level [2]: very high
- effect on forskolin-stimulated cAMP accumulation, preliminary screening (hCB2R [4]): low to high inhibition
- CB2 functional profile in cAMP assay (hCB2R [4]): partial or weak agonists

Structure (SMILES): C=C(C)[C@@H]1CCC(C)=C[C@H]1c1c(O)cc(CCCCC)cc1O [CBD, cannabidiol, reference compound]
- HSA binding level [1]: high
- AGP binding level [2]: very high

Structure (SMILES): CCCCCCC(C)(C)c1cc(OCCO)c2c(c1)OC(C)(C)c1cn(CC)nc1-2 [Compound 36, 7-(1,1-Dimethylheptyl)-2-ethyl-2,4-dihydro-9-(2-hydroxyethoxy)-4,4-dimethylchromeno[4,3-c]pyrazole]
- HSA binding level [1]: very high
- AGP binding level [2]: very high

Structure (SMILES): CCCCCCC(C)(C)c1cc(OCCO)c2c(c1)OC(C)(C)c1cn(C)nc1-2 [Compound 35, 7-(1,1-Dimethylheptyl)-2,4-dihydro-9-(2-hydroxyethoxy)-2,4,4-trimethylchromeno[4,3-c]py-razole]
- effect on forskolin-stimulated cAMP accumulation, preliminary screening (hCB2R [4]): no effect
- CB2R antagonism of CP55,940 effect in cAMP assay (hCB2R [4]): able to antagonize the effect of the cannabinoid agonist CP55,940

Structure (SMILES): CCCCCCC(C)(C)c1cc2c(c3c1CCCO3)-c1c(cnn1CC)C(C)(C)O2 [Compound 40, 7-(1,1-Dimethylheptyl)-1-ethyl-1,4,9,10-tetrahydro-4,4-dimethyl-8H-pyrano[2′,3′:5,6]chrome-no[4,3-c]pyrazole]
- HSA binding level [1]: medium
- AGP binding level [2]: medium

Structure (SMILES): CCCCCCC(C)(C)c1ccc([C@@H]2C[C@H](O)CC[C@H]2CCCO)c(O)c1 [CP55,940, reference compound]
- HSA binding level [1]: high

Structure (SMILES): CCCCCCC(C)(C)c1cc(OC)c2c(c1)OC(C)(C)c1cnoc1-2 [Compound 43, 7-(1,1-Dimethylheptyl)-9-methoxy-4,4-dimethyl-4H-chromeno-[3,4-d]isoxazole]
- HSA binding level [1]: medium
- AGP binding level [2]: medium
- IC50 (hCB2R [3]): 38.6 ± 6.7 nM

Structure (SMILES): CCCCCCC(C)(C)c1cc(OCCBr)c2c(c1)OC(C)(C)c1cnn(CC)c1-2 [Compound 39, 9-(2-Bromoethoxy)-7-(1,1-dimethylheptyl)-1-ethyl-1,4-dihydro-4,4-dimethylchromeno[4,3-c]pyrazole]
- HSA binding level [1]: medium
- AGP binding level [2]: medium
- effect on forskolin-stimulated cAMP accumulation, preliminary screening (hCB2R [4]): low to high inhibition
- CB2 functional profile in cAMP assay (hCB2R [4]): partial or weak agonists
- Ki [5]: 78.7 ± 11.3 nM
- Ki [6]: 1330 ± 320 nM

Structure (SMILES): CCCCCCC(C)(C)c1cc(OCCCO)c2c(c1)OC(C)(C)c1cn(CC)nc1-2 [Compound 31, 7-(1,1-Dimethylheptyl)-2-ethyl-2,4-dihydro-9-(3-hydroxypropoxy)-4,4-dimethylchromeno-[4,3-c]pyrazole]
- effect on forskolin-stimulated cAMP accumulation, preliminary screening (hCB2R [4]): no effect
- CB2R antagonism of CP55,940 effect in cAMP assay (hCB2R [4]): behaved as the CP55,940 antagonist only at the highest concentration

Structure (SMILES): CCCCCCC(C)(C)c1cc(OCc2ccccc2)c2c(c1)OC(C)(C)c1cn[nH]c1-2 [Compound 22, 9-Benzyloxy-2,4-dihydro-7 - (1,1-di m ethylheptyl)-4,4 - dimethylchromeno[4,3-c]pyrazole]
- effect on forskolin-stimulated cAMP accumulation, preliminary screening (hCB2R [4]): low to high inhibition
- CB2 functional profile in cAMP assay (hCB2R [4]): partial or weak agonists

Structure (SMILES): CCCCCCC(C)(C)c1cc(OCCO)c2c(c1)OC(C)(C)c1cn[nH]c1-2 [Compound 34, 7-(1,1-Dimethylheptyl)-2,4-dihydro-9-(2-hydroxyethoxy)-4,4-dimethylchromeno[4,3-c]pyra-zole]
- effect on forskolin-stimulated cAMP accumulation, preliminary screening (hCB2R [4]): low to high inhibition
- CB2 functional profile in cAMP assay (hCB2R [4]): potent CB2 agonists
- IC50 (hCB2R [3]): 95.1 ± 7.2 nM

Structure (SMILES): CCCCCCC(C)(C)c1cc(OC)c2c(c1)OC(C)(C)c1cnn(CC)c1-2 [Compound 17, 7-(1,1-Dimethylheptyl)-1-ethyl-1,4-dihydro-9-methoxy-4,4-dimethylchromeno[4,3-c]pyrazole]
- effect on forskolin-stimulated cAMP accumulation, preliminary screening (hCB2R [4]): low to high inhibition
- CB2 functional profile in cAMP assay (hCB2R [4]): partial or weak agonists

Structure (SMILES): CCCCCCC(C)(C)c1cc(OCCCO)c2c(c1)OC(C)(C)c1cnoc1-2 [Compound 44, 7-(1,1-Dimethylheptyl)-9-(3-hydroxypropoxy)-4,4-dimethyl-4H-chromeno[3,4-d]isoxazole]
- IC50 (hCB2R [3]): 540 ± 208 nM

Structure (SMILES): CCCCC/C=C\C/C=C\C/C=C\C/C=C\CCCC(=O)OC(CO)CO [Compound 2-AG, 2-arachidonoylglycerol, reference compound]
- HSA binding level [1]: high
- AGP binding level [2]: very high

Structure (SMILES): CCCCCCC(C)(C)c1cc(OCCCO)c2c(c1)OC(C)(C)c1cn[nH]c1-2 [Compound 28, 7-(1,1-Dimethylheptyl)-2,4-dihydro-9-(3-hydroxypropoxy)-4,4-dimethylchromeno[4,3-c]pyrazole]
- HSA binding level [1]: very high
- AGP binding level [2]: very high
- effect on forskolin-stimulated cAMP accumulation, preliminary screening (hCB2R [4]): low to high inhibition
- CB2 functional profile in cAMP assay (hCB2R [4]): partial or weak agonists

Structure (SMILES): CCCCCCC(C)(C)c1cc(OC)c2c(c1)OC(C)(C)c1cn(C)nc1-2 [Compound 16, 7-(1,1-Dimethylheptyl)-2,4-dihydro-9-methox y-2,4,4-trimethylchromeno[4,3-c]pyrazole]
- effect on forskolin-stimulated cAMP accumulation, preliminary screening (hCB2R [4]): no effect
- CB2R antagonism of CP55,940 effect in cAMP assay (hCB2R [4]): able to antagonize the effect of the cannabinoid agonist CP55,940

Structure (SMILES): CCCCC/C=C\C/C=C\C/C=C\C/C=C\CCCC(=O)NCCO [AEA, anandamide, reference compound]
- AGP binding level [2]: very high

From paper PMC5321205 (Journal of medicinal chemistry, 2016)
